Where a SMILES comes first, the peptide text is derived from it.
Assays:
[1] = target: T1, PDK1 (Homo sapiens, UniProt O15530); assay: Phosphorylation of GST-p70 S6K-T2 by PDK1 in vitro (32P autoradiography); assay type: biochemical; design: made in house; host or cells: 293 cells or E. coli; conditions: GST-PDK1 50 nM
T1 sequence (O15530 1-556): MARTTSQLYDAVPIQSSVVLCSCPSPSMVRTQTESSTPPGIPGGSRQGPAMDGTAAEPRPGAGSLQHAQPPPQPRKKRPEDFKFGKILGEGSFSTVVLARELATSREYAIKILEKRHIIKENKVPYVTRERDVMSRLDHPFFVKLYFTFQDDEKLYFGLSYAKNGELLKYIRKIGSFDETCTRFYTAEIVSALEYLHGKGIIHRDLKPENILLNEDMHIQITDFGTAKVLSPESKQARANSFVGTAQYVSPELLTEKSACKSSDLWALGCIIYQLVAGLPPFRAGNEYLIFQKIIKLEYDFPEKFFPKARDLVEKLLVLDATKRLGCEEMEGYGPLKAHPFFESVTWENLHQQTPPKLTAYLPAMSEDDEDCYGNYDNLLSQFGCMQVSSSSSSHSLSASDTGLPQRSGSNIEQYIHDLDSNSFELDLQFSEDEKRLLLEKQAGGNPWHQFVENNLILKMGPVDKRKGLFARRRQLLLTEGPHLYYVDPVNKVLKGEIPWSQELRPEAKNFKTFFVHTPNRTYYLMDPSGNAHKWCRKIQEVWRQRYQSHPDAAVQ
Method: FIG. 1. PIF prevents PDK1 from phosphorylating p70 S6K in vitro. GST-p70 S6K lacking the C-terminal 104 amino acids (GST-p70 S6KT2) (1 μg) was incubated for 30 min at 30° C. with Mg [γ^32P] ATP and GST-PDK1 (50 nM) in the presence or absence of either wild type (wt) GST-PIF or D978A GST-PIF (1.5 μM), or the indicated PIF peptides (4 μM) in a final volume of 20 μl. The reactions were terminated by making the solutions 1% in SDS, the samples subjected to SDS-polyacylamide gel electrophoresis, and the phosphorylation assessed by autoradiography of the gel. The position in the gel where GST-p70 S6KT2 (73 kDa) migrates is indicated with an arrow. The only other ^32P-labelled protein on the gel which is not shown, corresponded to autophosphorylation of PDK1 and contained ˜10 fold lower levels of ^32P-radioactivity than that of the GST-p70 S6T2 phosphorylated by PDK1 in the absence of PIF. A high amount of PDK1 is used in this experiment to achieve a near maximal phosphorylation of GST-p70 S6T2. If the reactions were carried out at a 10-fold lower concentration of PDK1 under conditions where the phosphorylation of GST-p70 S6T2 by PDK1 is linear with time and the amount of substrate used, then PIF still prevented the phosphorylation of GST-p70 S6T2 (data not shown). wt indicates wild type and PSer indicates phospho-serine. The results of a duplicate experiment for each condition are shown, and similar findings were obtained in five separate experiments.
Preparation of insect cell His-p70 S6K. p70 S6K with a His-epitope tag at its N-terminus lacking the carboxy terminal 104 residues is termed p70 S6K-T2. In order to prepare wild type and the mutant 412E-p70 S6K-T2 the cDNA for these constructs was amplified by PCR from the pMT2 vector encoding these forms of p70 S6K [6] using the following oligonucleotides: 5′-AGGATCCACCATGCACCATCACCATCACCATATGAGGCGAGCAAGGAGGCGG-3′ and 5′-GCGGCCGCTCAACTTTCAAGTACAGATGGAGCC-3′. The PCR products were then subcloned into the BamH1/Not1 sites of the pFASTBAC 1 vector and this vector was used to generate recombinant baculovirus using the Bac-to-Bac system (Life Technologies Inc). The resulting viruses, encoded p70 S6K-T2 or 412E-p70 S6K-T2 with an N-terminal hexahistidine sequence, and was used to infect Sf21 cells (1.5×10^6/m) at a multiplicity of infection of 5. The infected cells were harvested 72 h post-infection and the His-p70 S6K proteins purified by Ni^2+/NTA (nitrilotriacetic acid)-agarose chromatography as described previously for PKBβ [25]. […]

[2] = system: PDK1; conditions: ref [24], cited from earlier work

Compound	effect on phosphorylation of GST-p70 S6K-T2 by PDK1 ([1]; GST fusion 1.5 μM)	reduced affinity for PDK1 compared with wild type PIFtide [2]	effect on phosphorylation of GST-p70 S6K-T2 by PDK1 ([1]; peptide 4 μM)	Kd ([2]; read-out: affinity of PDK1 for PIFtide (Kd))
GST-PIF: glutathione S-transferase fused to the last 77 residues of PRK2 (PIF)	unable to phosphorylate	–	–	–
CC[C@H](C)[C@H](NC(=O)[C@H](CCCNC(=N)N)NC(=O)[C@@H]1CCCN1C(=O)[C@H](CCC(=O)O)NC(=O)[C@@H](N)CCCNC(=N)N)C(=O)N[C@@H](CC(C)C)C(=O)N[C@@H](CO)C(=O)N[C@@H](CCC(=O)O)C(=O)N[C@@H](CCC(=O)O)C(=O)N[C@@H](CCC(=O)O)C(=O)N[C@@H](CCC(N)=O)C(=O)N[C@@H](CCC(=O)O)C(=O)N[C@@H](CCSC)C(=O)N[C@@H](Cc1ccccc1)C(=O)N[C@@H](CCCNC(=N)N)C(=O)N[C@@H](CC(=O)O)C(=O)N[C@@H](Cc1ccccc1)C(=O)N[C@@H](C)C(=O)N[C@@H](Cc1ccc(O)cc1)C(=O)N[C@@H](CC(C)C)C(=O)N[C@@H](C)C(=O)N[C@@H](CC(=O)O)C(=O)N[C@@H](Cc1c[nH]c2ccccc12)C(=O)N[C@@H](CS)C(=O)O [D978A-PIFtide] (H-REPRILSEEEQEMFRDFAYLADWC-OH; N-terminus and C-terminus assumed)	–	10 fold	poorly inhibited	–
CC[C@H](C)[C@H](NC(=O)[C@H](Cc1ccc(O)cc1)NC(=O)[C@H](CC(=O)O)NC(=O)[C@H](Cc1ccccc1)NC(=O)[C@H](CC(=O)O)NC(=O)[C@H](CCCNC(=N)N)NC(=O)[C@H](Cc1ccccc1)NC(=O)[C@H](CCSC)NC(=O)[C@H](CCC(=O)O)NC(=O)[C@H](CCC(N)=O)NC(=O)[C@H](CCC(=O)O)NC(=O)[C@H](CCC(=O)O)NC(=O)[C@H](CCC(=O)O)NC(=O)[C@H](CO)NC(=O)[C@H](CC(C)C)NC(=O)[C@@H](NC(=O)[C@H](CCCNC(=N)N)NC(=O)[C@@H]1CCCN1C(=O)[C@H](CCC(=O)O)NC(=O)[C@@H](N)CCCNC(=N)N)[C@@H](C)CC)C(=O)N[C@@H](C)C(=O)N[C@@H](CC(=O)O)C(=O)N[C@@H](Cc1c[nH]c2ccccc12)C(=O)N[C@@H](CS)C(=O)O [PIFtide] (H-REPRILSEEEQEMFRDFDYIADWC-OH; N-terminus and C-terminus assumed)	–	–	unable to phosphorylate	~300 nM
